Reference: US12281057B2 (VERTEX PHARMACEUTICALS INCORPORATED, priority 2017, dated 2025)

What follows are compounds tested against truncated form of human NaV 1.8 with full channel activity (Homo sapiens, UniProt Q9Y5Y9) (assay: E-VIPR Assay Method A for detecting and measuring Nav inhibition (HEK cells, membrane potential FRET dyes, electrical stimulation)). Settings: HEK cells expressing human NaV 1.8, HS (human serum) in compound loading buffer, 11 point dose response, top dose 3 μM, Table 20A, read-out: Nav 1.8 MedChem Optical Assay EVIPR Assay Method A HS IC50.
Format: cell-based
From the text: E-VIPR Assay Method A for Detecting and Measuring Nav Inhibition Properties Sodium ion channels are voltage-dependent proteins that can be activated by inducing membrane voltage changes by applying electric fields. The electrical stimulation instrument and methods of use, referred to as E-VIPR, are described in International Publication No. WO 2002/008748 A3 and C.-J. Huang et al. Characterization of voltage-gated sodium channel blockers by electrical stimulation and fluorescence detection of membrane potential, 24 Nature Biotech. 439-46 (2006), both of which are incorporated by reference in their entirety. The instrument comprises a microtiter plate handler, an optical system for exciting the coumarin dye while simultaneously recording the coumarin and oxonol emissions, a waveform generator, a current- or voltage-controlled amplifier, and parallel electrode pairs that are inserted into assay plate wells. Under integrated computer control, this instrument passes user-programmed electrical stimulus protocols to cells within the wells of the microtiter plate. […] Sigma #F4135), 1% NEAA (Non-Essential Amino Acids, Life Tech #11140), 1% HEPES (Life Tech #15630), 1% Pen-Strep (Penicillin-Streptomycin; […] Cells were expanded in vented cap flasks, with 95% humidity and 5% CO2. Reagents and Stock Solutions: • 100 mg/mL Pluronic F-127 (Sigma #P2443), in dry DMSO • Compound Plates: […] 5% KIR 2.1 Bacmam virus (produced in-house), prepared as described in Section 3.3 of J. A. […] The solution was made by adding 10% Pluronic F127 stock equal to combined volumes of CC2-DMPE and DiSBAC6(3). The order of preparation was first mix Pluronic and CC2-DMPE, then add DiSBAC6(3), then while vortexing add Bath1/β-Cyclodextrin. […] Assay Protocol: […] Final DMSO concentration for all wells in the assay was 0.625% (0.75% DMSO was supplemented to the Compound Loading Buffer for a final DMSO concentration of 0.625%). […] 3) Cell plates were prepared. On the day of the assay, the media was aspirated, and the cells were washed three times with 80 μL of Bath-1 buffer, maintaining 25 μL residual volume in each well. 4) 25 μL per well of Hexyl Dye Solution was dispensed into the cell plates. The cells were incubated for 20 minutes at room temp or ambient conditions in darkness. 5) 80 μL per well of Compound Loading Buffer was dispensed into compound plates. 6) The cell plates were washed three times with 80 μL per well of Bath-1 Buffer, leaving 25 µL of residual volume. Then 25 uL per well from compound plate was transferred to each cell plate. The mixture was incubated for 30 minutes at room temp/ambient conditions. 7) The plate was read on E-VIPR using the current-controlled amplifier to deliver stimulation wave pulses using the following protocol: 1.25 Amps, 2.5 ms pulse width biphasic waveform, 10 Hz for 10 seconds at a scan rate of 200 Hz. A pre-stimulus recording was performed for 0.5 seconds to obtain the un-stimulated intensities baseline. The stimulatory waveform was followed by 0.5 seconds of post-stimulation recording to examine the relaxation to the resting state. Data Analysis: Data were analyzed and reported as normalized ratios of emission intensities measured in the 460 nm and 580 nm channels. The response as a function of time was reported as the ratios obtained using the following formula: […] The data were further reduced by calculating the initial (Ri) and final (Rf) ratios. These were the average ratio values during part or all of the pre-stimulation period and during sample points during the stimulation period. The fluorescence ratio (Rf/Ri) was then calculated and reported as a function of time. Control responses were obtained by performing assays in the presence of the positive control, and in the absence of pharmacological agents (DMSO vehicle negative control). Responses to the negative (N) and positive (P) controls were calculated as above. The compound antagonist % activity A was then defined as: [formula] where X is the ratio response of the test compound. […]

Sequence of truncated form of human NaV 1.8 with full channel activity (Q9Y5Y9 126-1722 limits assumed): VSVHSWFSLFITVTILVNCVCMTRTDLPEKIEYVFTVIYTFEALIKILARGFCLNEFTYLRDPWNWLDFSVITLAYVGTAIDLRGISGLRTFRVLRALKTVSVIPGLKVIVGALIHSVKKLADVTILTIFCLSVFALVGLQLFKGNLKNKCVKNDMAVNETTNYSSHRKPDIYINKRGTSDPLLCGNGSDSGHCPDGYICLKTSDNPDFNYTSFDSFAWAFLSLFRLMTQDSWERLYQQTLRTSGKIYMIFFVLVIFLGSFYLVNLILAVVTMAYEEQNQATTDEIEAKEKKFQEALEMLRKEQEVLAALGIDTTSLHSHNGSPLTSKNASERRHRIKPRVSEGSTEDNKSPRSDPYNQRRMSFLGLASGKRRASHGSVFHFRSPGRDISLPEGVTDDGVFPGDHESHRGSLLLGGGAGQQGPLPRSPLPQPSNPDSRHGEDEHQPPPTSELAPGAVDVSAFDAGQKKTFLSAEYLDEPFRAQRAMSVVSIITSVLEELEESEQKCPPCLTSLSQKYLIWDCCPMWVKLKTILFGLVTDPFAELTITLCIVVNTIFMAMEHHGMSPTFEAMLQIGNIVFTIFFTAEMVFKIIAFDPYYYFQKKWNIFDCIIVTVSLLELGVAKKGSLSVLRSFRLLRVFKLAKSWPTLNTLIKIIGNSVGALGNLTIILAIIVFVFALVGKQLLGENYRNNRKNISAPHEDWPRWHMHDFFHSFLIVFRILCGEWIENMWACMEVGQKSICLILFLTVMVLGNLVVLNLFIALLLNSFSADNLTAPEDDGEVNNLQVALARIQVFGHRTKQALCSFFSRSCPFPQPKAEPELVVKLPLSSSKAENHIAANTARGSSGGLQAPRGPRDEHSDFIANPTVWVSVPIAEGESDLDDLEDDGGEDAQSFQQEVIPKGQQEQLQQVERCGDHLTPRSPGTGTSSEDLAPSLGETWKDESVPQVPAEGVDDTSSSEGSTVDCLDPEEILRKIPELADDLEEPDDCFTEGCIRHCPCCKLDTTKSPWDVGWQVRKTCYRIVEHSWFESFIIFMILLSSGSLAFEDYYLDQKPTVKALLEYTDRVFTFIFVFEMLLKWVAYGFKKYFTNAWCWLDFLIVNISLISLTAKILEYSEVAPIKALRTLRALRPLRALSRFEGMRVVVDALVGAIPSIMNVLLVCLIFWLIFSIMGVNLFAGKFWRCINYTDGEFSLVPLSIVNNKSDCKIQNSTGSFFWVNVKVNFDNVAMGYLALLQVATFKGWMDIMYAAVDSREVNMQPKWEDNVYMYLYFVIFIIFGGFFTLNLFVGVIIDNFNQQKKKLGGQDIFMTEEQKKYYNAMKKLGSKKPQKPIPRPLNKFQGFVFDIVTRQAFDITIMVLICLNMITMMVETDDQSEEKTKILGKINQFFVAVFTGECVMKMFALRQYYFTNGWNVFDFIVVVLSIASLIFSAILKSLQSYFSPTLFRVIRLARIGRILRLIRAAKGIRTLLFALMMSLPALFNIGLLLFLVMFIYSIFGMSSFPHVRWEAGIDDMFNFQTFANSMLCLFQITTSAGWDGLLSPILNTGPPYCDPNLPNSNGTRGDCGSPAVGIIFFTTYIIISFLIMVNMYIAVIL

SMILES | IC50
COc1cc(OC(F)(F)F)ccc1Oc1cc(C2CC2)ncc1C(=O)Nc1ccc(F)c(C(N)=O)c1 [Compound 43, N-(3-Carbamoyl-4-fluoro-phenyl)-6-cyclopropyl-4-[2-methoxy-4-(trifluoromethoxy)phenoxy]pyridine-3-carboxamide] | 0.04 µM
COc1cc(OC(F)(F)F)ccc1Oc1ccc(C(F)(F)F)c(F)c1C(=O)Nc1cccc(C(N)=O)c1 [Compound 44, N-(3-carbamoylphenyl)-2-fluoro-6-[2-methoxy-4-(trifluoromethoxy)phenoxy]-3-(trifluoromethyl)benzamide] | 0.005 µM
COc1cc(OC(F)(F)F)ccc1Oc1cnc(C(F)(F)F)c(F)c1C(=O)Nc1ccc(F)c(C(N)=O)c1 [Compound 45, N-(3-carbamoyl-4-fluoro-phenyl)-3-fluoro-5-[2-methoxy-4-(trifluoromethoxy)phenoxy]-2-(trifluoromethyl)pyridine-4-carboxamide] | 0.001 µM
COc1cc(OC(F)(F)F)ccc1Oc1cnc(C2CC2)c(F)c1C(=O)Nc1ccc(F)c(C(N)=O)c1 [Compound 46, N-(3-Carbamoyl-4-fluoro-phenyl)-2-cyclopropyl-3-fluoro-5-[2-methoxy-4-(trifluoromethoxy)phenoxy]pyridine-4-carboxamide] | 1.2 µM
NC(=O)c1cccc(NC(=O)c2c(Oc3ccc(OC(F)(F)F)cc3)ccc(C(F)(F)F)c2F)c1 [Compound 47, N-(3-carbamoylphenyl)-2-fluoro-6-[4-(trifluoromethoxy)phenoxy]-3-(trifluoromethyl)benzamide] | 0.022 µM
NC(=O)c1cc(NC(=O)c2c(Oc3ccc(OC(F)(F)F)cc3)ccc(C(F)(F)F)c2F)ccn1 [Compound 48, 4-[[2-fluoro-6-[4-(trifluoromethoxy)phenoxy]-3-(trifluoromethyl)benzoyl]amino]pyridine-2-carboxamide] | 0.023 µM
NC(=O)c1cccc(NC(=O)c2c(Oc3ccc(F)cc3)ccc(C(F)(F)F)c2F)c1 [Compound 49, N-(3-carbamoylphenyl)-2-fluoro-6-(4-fluorophenoxy)-3-(trifluoromethyl)benzamide] | 0.13 µM
NC(=O)c1cc(NC(=O)c2c(Oc3ccc(F)cc3)ccc(C(F)(F)F)c2F)ccn1 [Compound 50, 4-[[2-fluoro-6-(4-fluorophenoxy)-3-(trifluoromethyl)benzoyl]amino]pyridine-2-carboxamide] | 0.051 µM
NC(=O)c1cc(NC(=O)c2c(Oc3ccc(OC(F)(F)F)cc3Cl)ccc(C(F)(F)F)c2F)ccn1 [Compound 51] | 0.009 µM
COc1cc(OC(F)(F)F)ccc1Oc1ccc(C(F)(F)F)c(F)c1C(=O)Nc1cncc(C(N)=O)c1 [Compound 52, 5-[[2-fluoro-6-[2-methoxy-4-(trifluoromethoxy)phenoxy]-3-(trifluoromethyl)benzoyl]amino]pyridine-3-carboxamide] | 0.014 µM
NC(=O)c1cc(NC(=O)c2c(Oc3ccc(OC(F)(F)F)c(Cl)c3)ccc(C(F)(F)F)c2F)ccn1 [Compound 53] | 0.017 µM
COc1nc(Cl)ccc1Oc1ccc(C(F)(F)F)c(F)c1C(=O)Nc1ccc(F)c(C(N)=O)c1 [Compound 54, N-(3-Carbamoyl-4-fluoro-phenyl)-6-[(6-chloro-2-methoxy-3-pyridyl)oxy]-2-fluoro-3-(trifluoromethyl)benzamide] | 0.007 µM
COc1cc(OC(F)(F)F)ccc1Oc1ccc(F)c(F)c1C(=O)Nc1ccc(F)c(C(N)=O)c1 [Compound 55, N-(3-Carbamoyl-4-fluoro-phenyl)-2,3-difluoro-6-[2-methoxy-4-(trifluoromethoxy)phenoxy]benzamide] | 0.018 µM
COc1ccc(Oc2ccc(C(F)(F)F)c(F)c2C(=O)Nc2ccc(F)c(C(N)=O)c2)cn1 [Compound 56, N-(3-carbamoyl-4-fluoro-phenyl)-2-fluoro-6-[(6-methoxy-3-pyridyl)oxy]-3-(trifluoromethyl)benzamide] | 0.26 µM
NC(=O)c1cc(NC(=O)c2c(Oc3ccc(OC(F)(F)F)c(F)c3)ccc(C(F)(F)F)c2F)ccn1 [Compound 57, 4-[[2-fluoro-6-[3-fluoro-4-(trifluoromethoxy)phenoxy]-3-(trifluoromethyl)benzoyl]amino]pyridine-2-carboxamide] | 0.017 µM
NC(=O)c1cc(NC(=O)c2c(Oc3cccc4c3OCC4)ccc(C(F)(F)F)c2F)ccc1F [Compound 58, N-(3-Carbamoyl-4-fluoro-phenyl)-6-(2,3-dihydrobenzofuran-7-yloxy)-2-fluoro-3-(trifluoromethyl)benzamide] | 0.19 µM
Cc1cc(OC(F)(F)F)ccc1Oc1ccc(C(F)(F)F)c(F)c1C(=O)Nc1ccnc(C(N)=O)c1 [Compound 59, 4-[[2-fluoro-6-[2-methyl-4-(trifluoromethoxy)phenoxy]-3-(trifluoromethyl)benzoyl]amino]pyridine-2-carboxamide] | 0.007 µM
NC(=O)c1ccc(NC(=O)c2c(Oc3ccc(OC(F)(F)F)cc3)ccc(C(F)(F)F)c2F)cn1 [Compound 60, 5-[[2-fluoro-6-[4-(trifluoromethoxy)phenoxy]-3-(trifluoromethyl)benzoyl]amino]pyridine-2-carboxamide] | 0.185 µM
NC(=O)c1cc(NC(=O)c2c(Oc3ccc(OC(F)(F)F)cc3)cnc(C(F)(F)F)c2F)ccn1 [Compound 61, N-(2-Carbamoyl-4-pyridyl)-3-fluoro-5-[4-(trifluoromethoxy)phenoxy]-2-(trifluoromethyl)pyridine-4-carboxamide] | 0.038 µM
NC(=O)c1cc(NC(=O)c2c(Oc3ccc(OC(F)(F)F)cc3)cnc(C(F)(F)F)c2F)ccc1F [Compound 62, N-(3-Carbamoyl-4-fluoro-phenyl)-3-fluoro-5-[4-(trifluoromethoxy)phenoxy]-2-(trifluoromethyl)pyridine-4-carboxamide] | 0.011 µM
NC(=O)c1cc(NC(=O)c2c(Oc3ccc(OC(F)(F)F)cc3)ccc(F)c2F)ccc1F [Compound 63, N-(3-Carbamoyl-4-fluoro-phenyl)-2,3-difluoro-6-[4-(trifluoromethoxy)phenoxy]benzamide] | 0.14 µM
NC(=O)c1cc(NC(=O)c2c(Oc3ccc(OC(F)(F)F)cc3)ccc(F)c2F)ccn1 [Compound 64, 4-[[2,3-Difluoro-6-[4-(trifluoromethoxy)phenoxy]benzoyl]amino]pyridine-2-carboxamide] | 0.185 µM
NC(=O)c1ccc(NC(=O)c2c(Oc3ccc(OC(F)(F)F)cc3)ccc(C(F)(F)F)c2F)cc1F [Compound 65, N-(4-Carbamoyl-3-fluoro-phenyl)-2-fluoro-6-[4-(trifluoromethoxy)phenoxy]-3-(trifluoromethyl)benzamide] | 0.079 µM
Cc1cc(OC(F)(F)F)ccc1Oc1ccc(C(F)(F)F)c(F)c1C(=O)Nc1ccc(C(N)=O)c(F)c1 [Compound 66, N-(4-carbamoyl-3-fluoro-phenyl)-2-fluoro-6-[2-methyl-4-(trifluoromethoxy)phenoxy]-3-(trifluoromethyl)benzamide] | 0.038 µM
COc1nc(Cl)ccc1Oc1ccc(C(F)(F)F)c(F)c1C(=O)Nc1ccc(C(N)=O)c(F)c1 [Compound 67, N-(4-carbamoyl-3-fluoro-phenyl)-6-[(6-chloro-2-methoxy-3-pyridyl)oxy]-2-fluoro-3-(trifluoromethyl)benzamide] | 0.042 µM
COc1cc(OC(F)(F)F)ccc1Oc1cnc(C(F)(F)F)cc1C(=O)Nc1ccc(F)c(C(N)=O)c1 [Compound 68, N-(3-Carbamoyl-4-fluoro-phenyl)-5-[2-methoxy-4-(trifluoromethoxy)phenoxy]-2-(trifluoromethyl)pyridine-4-carboxamide] | 0.021 µM
